One test addresses hSERT Y95F (Homo sapiens, UniProt P31645, Y95F).
The target of another test is hSERT WT (Homo sapiens, UniProt P31645). The experiment in a line: cell-based. The class given is cell-based.

Where a name gives a salt, the structure may show the parent alone. Read-outs that look alike come from different tables or passages of the source.

Method for hSERT Y95F: HeLa cells maintained at 37° C. in a 5% CO2 humidified incubator, were grown in complete medium (DMEM, 10% FBS, 2 mM L-glutamine, 100 units/ml penicillin, and 100 μg/ml streptomycin). For initial evaluation of mutant transporter activity, cells were plated at a density of 100,000 cells per well in 24 well culture plates. Cells were transfected with SERT mutant or wild-type constructs with 3 μl of Fugene 6 per μg of DNA pre-mixed in OptiMEM medium. Following transfection (16 hours), cells were washed with KRH assay buffer (120 mM NaCl, 4.7 mM KCl, 2.2 mM CaCl2, 1.2 mM MgSO4, 1.2 mM KH2PO4, 10 mM HEPES, pH 7.4) and assayed by competitive uptake assays where cells were preincubated for 10 min at 37° C. in assay buffer containing 1.8 g/L glucose and various concentrations of inhibitor compounds. […] The extent of [^3H]-5-HT accumulated was determined by liquid scintillation counting on a Packard TopCount System.
The resulting data was normalized to percent uptake of wild-type control and analyzed by a non-linear competition binding equation (Prism 4 for Mac, Graphpad Software) for [^3H]-5-HT (5-hydroxy[^3H]tryptamine trifluoroacetate, Amersham Pharmacia Biotech). […] For Ki values were determined by application of the Cheng and Prusoff equation. […]

On to `NCCc1c[nH]c2ccc(O)cc12` [5HT, 5-hydroxytryptamine], for which the recognition entry at hSERT Y95F was “appeared normal”. As a reminder, the EC50 is the concentration at which the effect is half-maximal. Turning to `COC(=O)[C@H]1C(c2ccc(I)cc2)C[C@@H]2CC[C@H]1N2C` (stereo partly drawn) [RTI-55], the EC50 on hSERT WT (read-out: EC50(μM) WT) came to 0.0007 µM.

On hSERT WT, `NCCc1c[nH]c2ccccc12` [Tryptamine] showed an EC50 of 0.2 µM. For `CNC(C)Cc1ccc2c(c1)OCO2` (stereo not drawn) [MDMA], the EC50 on hSERT WT (read-out: EC50(μM) WT) amounted to 0.7 µM. Take `CNCCC(Oc1ccccc1OC)c1ccccc1` (stereo not drawn) [Nisoxetine]: the response on hSERT WT was half-maximal at 1.36 µM (EC50). Compound `OC1(c2ccc(Cl)cc2)c2ccccc2C2=NCCN21` (stereo not drawn) [Mazindol] registered an EC50 at hSERT WT of 2.9 µM.

`NCCc1c[nH]c2c(O)cccc12` [7-hydroxytryptamine] came in with a 50% effective concentration (EC50) at hSERT WT of 1.4 µM. At hSERT WT, `NCCc1c[nH]c2c(O)c(O)c(O)cc12` [5,6,7 trihydroxytryptamine] showed an EC50 of 14.3 µM. Consider `CC(N)Cc1c[nH]c2ccc(O)cc12` (stereo not drawn) [Alpha-methylserotonin maleate], for which the EC50 on hSERT WT (read-out: EC50(μM) WT) was 2.2 µM.
